Results from patent US20110086818A1, “METHODS, COMPOSITIONS, AND KITS FOR TREATING PAIN AND PRURITUS” (priority 2008, published 2011).

Experiments:
[1] = test system: voltage-dependent sodium channels; assay: whole-cell voltage clamp recordings of sodium current in small (capsaicin-sensitive) DRG neurons; type: cell-based, rat; details: for inhibition (decrease) of sodium current: small capsaicin-sensitive DRG neurons, 5 mM QX-314 (5-minute application), 1 μM capsaicin (1-10 minutes), alone or together, steps from −70 mV, n=25
Experimental: We recorded current through voltage-dependent sodium channels using whole-cell voltage clamp recordings from adult rat DRG neurons. To select for nociceptors, we recorded from small (24±5 μm; n=25) neurons and tested the neurons for the expression of TRPV1 receptors by a short (1-sec) application of 1 μM capsaicin. In 25/25 of small neurons tested, capsaicin produced a prolonged (10±3 sec) inward current (FIG. 1A, upper panel), consistent with the neurons being nociceptors. Sodium currents were elicited by depolarizing steps from a holding potential of −70 mV.
(§1) Dorsal root ganglia from 6-8 week old Sprague-Dawley rats were removed and placed into Dulbecco's Minimum Essential Medium containing 1% penicillin-streptomycin (Sigma), then treated for 90 minutes with 5 mg/ml collagenase, 1 mg/ml Dispase II (Roche, Indianapolis, Ind.) and for 7 minutes with 0.25% trypsin, followed by addition of 2.5% trypsin inhibitor. Cells were triturated in the presence of DNAase I […] (50 U), centrifuged through 15% BSA (Sigma), resuspended in 1 ml Neurobasal medium (Sigma), 10 μM AraC, NGF (50 ng/ml) and GDNF (2 ng/ml) and plated onto poly-lysine (500 μg/ml) and laminin ([…]) coated 35 mm tissue culture dishes (Becton Dickinson) at 8000-9000 per well. Cultures were incubated at 37° C., 5% carbon dioxide. Recordings were made within 48 hours after plating. Average size of small neurons chosen as likely nociceptors was 23±6 μm (n=50) and that of large neurons was 48±8 μM (n=10).
Whole-cell voltage-clamp or current-clamp recordings were made using an Axopatch 200 A amplifier (Axon Instruments, Union City, Calif.) and patch pipettes with resistances of 1-2 MΩ. For voltage-clamp recordings pipette capacitance was reduced by wrapping the shank by Parafilm or coating the shank with Sylgard (Dow Corning, Midland, Mich.). Cell capacitance was compensated for using the amplifier circuitry, and linear leakage currents subtracted using a P/4 procedure. Series resistance (usually 3-7 MO and always less than 10 MΩ) was compensated by ˜80%. Voltage clamp recordings used solutions designed to isolate sodium currents by blocking potassium and calcium currents and with reduced external sodium to improve voltage clamp. Pipette solution was 110 mM CsCl, 1 mM CaCl2, 2 mM MgCl2, 11 mM EGTA, and 10 mM HEPES, pH adjusted to 7.4 with ˜25 mM CsOH. External solution was 60 mM NaCl, 60 mM choline chloride, 4 mM KCl, 2 mM CaCl2, 1 mM MgCl2, 0.1 mM CdCl2, 15 mM tetraethylammonium chloride, 5 mM 4-aminopyridine, 10 mM glucose, and 10 mM HEPES, pH adjusted to 7.4 with NaOH. No correction was made for the small liquid junction potential (−2.2 mV).
Command protocols were generated and data digitized using a Digidata 1200 A/D interface with pCLAMP 8.2 software (Axon Instruments, Union City, Calif.). […]

adult rats [2] = assay: intraplantar injection, mechanical threshold for paw withdrawal (von Frey hairs); type: in vivo, rat; details: QX-314 10 μL of 2%, capsaicin 10 μg/10 μL, capsaicin effect at 15 and 30 minutes
Experimental: (§2) FIG. 3. Intraplantar injection of capsaicin (10 μg/10 μL) together with QX-314 (2%, 10 μL) leads to a prolonged local anesthesia to mechanical (von Frey filaments) and thermal noxious stimuli. […] (*=p<0.05, n=6 for each group). […] Arrow indicates cutoff, and numbers of animals not responding to strongest stimulus is indicated for time points with largest effects. (*=p<0.05, n=6 for each group).
We next examined if the combination of capsaicin and QX-314 can reduce pain behavior in vivo. […] In three animals the paw was insensitive to even the highest value von Frey filament (57 g). The elevated mechanical threshold lasted for about three hours and then gradually returned back to basal levels by four hours (FIG. 3A).
(§3) For intraplantar injections, rats were first habituated to handling and tests performed with the experimenter blind to the treatment. Intraplantar injections of vehicle (20% ethanol, 5% Tween 20 in saline, 10 μL) capsaicin (1 μg/μL), QX-314 (2%) or mixture of capsaicin and QX-314 into the left hindpaw were made and mechanical and thermal sensitivities determined using von Frey hairs and radiant heat respectively.

adult rats [3] = assay: intraplantar injection, thermal (radiant heat) response latency; type: in vivo, rat; details: QX-314 at 30 min, capsaicin at 15 and 30 min, combination 2 hours after injection, heat applied for 25 seconds
Experimental: as §2
Similar effects were seen examining sensitivity to a standardized noxious radiant heat stimulus. […] This effect remained for 4 hours after the injection (FIG. 3B).
as §3

[4] = test system: voltage-dependent sodium channels; assay: whole-cell voltage clamp recordings of sodium current in large (capsaicin-insensitive) DRG neurons; type: cell-based, rat; details: large DRG neurons (>40 μm); 10-minute application; n=10
Text: To test whether the ability of co-applied capsaicin and QX-314 to inhibit sodium current is selective for cells that express TRPV1 receptors, we also recorded from large DRG neurons (soma diameter >40 μm) (FIG. 1A, right). […] As for small diameter neurons, QX-314 applied alone had little or no effect on sodium current (current increased by 8±4% after a 10-minute application, n=10). Unlike small diameter neurons, capsaicin had no effect on sodium current in large diameter neurons (average increase by 3±2% after a 10-minute application, n=10).
as §1, with “Average size of small neurons chosen as likely nociceptors was 23±6 μm (n=50) and that of large neurons was 48±8 μM (n=10).” left out

small DRG neurons = assay: current clamp recording of action potentials in small nociceptive-like DRG neurons; type: cell-based, rat; details: QX-314 5 mM, capsaicin 1 μM
rats [5] = assay: sciatic nerve injection, mechanical threshold (von Frey filaments); type: in vivo, rat; details: QX-314 0.2%, 100 μL, capsaicin 0.5 μg/μL, for 30 min after injection
Experimental: (§4) Motor effects were scored according to a scale of 0 (no effect; normal gait and limb placement), 1 (limb movement but with abnormal limb placement and movement) or 2 (complete loss of limb movement). […] For co-application of QX-314 and capsaicin into the para-sciatic nerve region, we injected QX-314 first, followed 10 minutes later by capsaicin, with the idea that QX-314 would be present extracellularly and ready to enter TRPV1 channels as soon as they were activated.
(§5) For sciatic nerve injections, animals were first habituated to handling for 10 days. Lidocaine (0.2% or 2%, 100 μL); QX-314 (0.2%, 100 μL) alone; capsaicin (50 μg in 100 μL) alone, or QX-314 followed by capsaicin (10 minutes interval) were injected into the area of sciatic nerve below the hip joint. Mechanical and thermal thresholds were determined using von Frey filaments and radiant heat. […] Walking, climbing, walking on the rod and placing reflex were examined. […] All experiments were done with the experimenter blinded.

rats [6] = assay: sciatic nerve injection, thermal (radiant heat) response latency; type: in vivo, rat; details: QX-314 0.2%, 100 μL, capsaicin 0.5 μg/μL, for 30 min after injection
Experimental: as §4, §5

rats [7] = assay: sciatic nerve injection, motor function score and placing reflex
Experimental: as §4, §5

TRPV1 receptors = biological target: T1, TRPV1 receptors (Rattus norvegicus, UniProt O35433); assay: capsaicin-evoked inward current in DRG neurons (test for expression of TRPV1 receptors); type: cell-based
T1 construct: Dorsal root ganglia from 6-8 week old Sprague-Dawley rats were removed; endogenous in cells; host or cells: primary cultured dorsal root ganglion neurons from 6-8 week old Sprague-Dawley rats
T1 sequence (O35433 whole entry): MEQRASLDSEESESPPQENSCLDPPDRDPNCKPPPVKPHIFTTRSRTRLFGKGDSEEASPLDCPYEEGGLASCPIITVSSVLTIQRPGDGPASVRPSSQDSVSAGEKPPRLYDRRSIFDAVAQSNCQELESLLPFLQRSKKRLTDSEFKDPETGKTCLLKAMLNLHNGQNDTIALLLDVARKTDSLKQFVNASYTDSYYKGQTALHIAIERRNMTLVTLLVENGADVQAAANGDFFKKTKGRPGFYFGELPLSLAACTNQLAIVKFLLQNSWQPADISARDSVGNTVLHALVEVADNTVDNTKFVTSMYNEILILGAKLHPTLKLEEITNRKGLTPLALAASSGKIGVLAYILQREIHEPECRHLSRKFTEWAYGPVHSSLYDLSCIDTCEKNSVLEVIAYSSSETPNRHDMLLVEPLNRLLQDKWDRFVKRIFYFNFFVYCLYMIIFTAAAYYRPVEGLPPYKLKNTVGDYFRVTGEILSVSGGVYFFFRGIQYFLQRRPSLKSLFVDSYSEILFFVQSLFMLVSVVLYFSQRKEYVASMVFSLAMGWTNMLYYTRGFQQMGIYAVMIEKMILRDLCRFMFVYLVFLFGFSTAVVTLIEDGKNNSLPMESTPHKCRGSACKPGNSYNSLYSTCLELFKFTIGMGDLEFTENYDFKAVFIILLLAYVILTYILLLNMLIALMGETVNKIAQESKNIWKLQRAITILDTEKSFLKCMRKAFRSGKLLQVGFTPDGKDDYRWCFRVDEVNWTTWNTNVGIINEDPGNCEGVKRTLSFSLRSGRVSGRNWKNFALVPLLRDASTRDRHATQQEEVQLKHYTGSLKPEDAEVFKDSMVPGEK
Experimental: QX-314 (5 mM), capsaicin (1 μM or 500 nM), or their combination was applied using custom-designed multibarrel fast drug delivery system placed about 200-250 μm from the neuron. Solution exchange was complete in less than a second.

[8] = hindpaw injection, acute pain-related response (flinches) and analgesia (FIG. 8); type: in vivo; details: injection into the hindpaw, flinches (FIG. 8)
adult rats [9] = assay: intraplantar injection, spontaneous flinching; type: in vivo, rat; details: first 5 minutes after intraplantar injection; capsaicin 10 μg/10 μL, QX-314 2%
[10] = small neurons, 1-sec application of 1 μM capsaicin

SMILES	inhibition of sodium current ([1]; small dorsal root ganglion neurons, eugenol alone (FIG. 5))	effect on mechanical threshold for withdrawal response (adult rats [2])	effect on thermal response latency (noxious radiant heat) (adult rats [3])	increase of sodium current [4]	effect on action potential generation / amplitude (small DRG neurons)	effect on mechanical threshold (rats [5])	effect on thermal response latency (rats [6])	effect of external application on sodium channels ([1]; external QX-314 alone)	inhibition (decrease) of sodium current [1]	effect on motor function (rats [7]; rat, in vivo)	inward current in large DRG neurons (TRPV1 receptors; large DRG neurons, soma diameter >40 μm, 10 of 10)	duration of prolonged inward current (TRPV1 receptors; [10])	small neurons tested in which an inward current was produced (TRPV1 receptors; [10])	duration of acute pain-related response following injection [8]	flinches in 5 min (adult rats [9])	mean motor score (rats [7]; scale 0-2, sciatic injection, lidocaine 2% at 30 minutes, capsaicin 0.5 μg/μL, 100 μL, QX-314 0.2%, 100 μL followed 10 minutes later by capsaicin)	duration of complete loss of tactile stimulus-evoked placing reflex (rats [7]; rat, in vivo)	time to full recovery of sensory and motor deficits (rats [7]; rat, in vivo)
C=CCc1ccc(O)c(OC)c1 [eugenol, 2-methoxy-4-(2-propenyl)phenol]	10-20%																	
CC[N+](CC)(CC)CC(=O)Nc1c(C)cccc1C [QX-314]		no significant effect	transiently reduced the thermal response latency	8±4%	had no effect	no significant effect	no significant effect	no effect	3±0.5%	no effect on motor function								
COc1cc(CNC(=O)CCCC/C=C/C(C)C)ccc1O [capsaicin]		significantly reduced the mechanical threshold	reduced	3±2%	reduced the action potential amplitude	reduced	reduced		31±9%		did not elicit an inward current	10 ± 3 s	25/25	approximately 15 min	40±6 flinches	0.7±0.2		
CCN(CC)CC(=O)Nc1c(C)cccc1C [lidocaine]										complete paralysis of the lower limb							at least 30 minutes	≤ 45 min
